Results as given in patent publication US20220267753A1, “RATIONAL THERAPEUTIC TARGETING OF ONCOGENIC IMMUNE SIGNALING STATES IN MYELOID MALIGNANCIES VIA THE UBIQUITIN CONJUGATING ENZYME UBE2N” (CHILDREN'S HOSPITAL MEDICAL CENTER, priority 2019, published 2022).

Assays:
UBE2N/UBE2V1 = target: T1, UBE2N/UBE2V1 (Homo sapiens, UniProt P61088); experiment: Thioester bond formation assay; format: biochemical; details: read-out: inhibition of UBE2N-Ub thioester conjugate formation
T1 construct: purchased Enzo Life Science BML-UW9565
T1 sequence (P61088 whole entry): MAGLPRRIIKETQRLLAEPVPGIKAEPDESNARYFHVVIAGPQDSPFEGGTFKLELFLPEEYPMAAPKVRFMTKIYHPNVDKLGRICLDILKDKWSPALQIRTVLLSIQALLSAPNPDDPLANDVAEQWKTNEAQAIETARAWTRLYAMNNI
T1 sequence (Q13404 whole entry partner): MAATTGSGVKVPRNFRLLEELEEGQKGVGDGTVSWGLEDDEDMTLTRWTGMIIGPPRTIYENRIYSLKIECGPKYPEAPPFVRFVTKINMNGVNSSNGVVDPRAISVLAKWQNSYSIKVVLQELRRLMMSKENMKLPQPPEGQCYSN
Procedure: An in vitro Ubiquitin-E2 thioester (TE) bond formation assay was performed as described (Enzo Life Science, #BML-UW9920-0001, Farmingdale, N.Y.). The reaction was prepared as follows: 10×E2 (UBE2N/Mms2, No. BML-UW9565; UbcH5a, No. BML-UW9050; or UbcH6, Prod. No. BML-UW8710) were incubated with UC-764864 or UC-764865 at 1 or 2 μM for 30 minutes at room temperature. After the incubation period, the following reagents were added to the reaction: distilled water, 10× ubiquitination buffer, inorganic pyrophosphatase solution (100 U/mL in 20 mM Tris-HCl, pH 7.5, Sigma, 83205, St. Louis, Mo.), 50 mM DTT, 0.1 M Mg-ATP, 20×E1 (recombinant human ubiquitin-activating enzyme) and 20× biotinylated ubiquitin to a final volume of 10 p.l. The mixture was incubated for 4 hours at 37° C. The reaction was stopped by adding 10 p.l 2× non-reducing gel loading buffer. 15 p.l of the samples were run on SDS-PAGE gels and transferred to PVDF membrane. […] After washing the membrane for 6×10 mins with TBS-T on a rocking platform, total ubiquitin was detected with ECL detection reagent (Pierce™ ECL Western Blotting Substrate, #32106, Appleton, Wis.) according to the manufacturer's instructions. Detect emitted signal with Biorad ChemiDoc™ MP and analyzed with Image lab software 6.0.1 (Biorad, Hercules, Calif.) or Image J [67]. […]

MOLM-13 and THP-1 cells = experiment: Immunoblot / qRT-PCR of NF-κB, STAT1 and IRF signaling; format: cell-based, human; details: 2 μM
Procedure: mRNA expression of selected genes was corroborated by quantitative reverse transcriptase PCR (see primer sequences in Table 2) using cDNA with SYBR® Green or Taqman® gene expression assays (Applied Biosystems, Waltham, Mass.) on the StepOnePlus from Applied Biosystems. Abundance of each transcript was calculated using the Pfaffl Method. Actin or GAPDH were used as housekeeping genes.
For immunoblots, total protein lysates were obtained from cells by lysing the samples in cold RIPA buffer (50 mM Tris-HCl, 150 mM NaCl, 1 mM EDTA, 1% Triton X-100 and 0.1% SDS), in the presence of PMSF, sodium orthovanadate, protease and phosphatase inhibitors. After being re-suspended in RIPA, cells were lysed in the cold room with rocking for 15 min. Protein concentration was evaluated by a BCA assay (Pierce, Waltham, Mass.). SDS sample buffer was added to the lysates and the proteins were separated by SDS-polyacrylamide gel electrophoresis, transferred to PVDF or nitrocellulose membranes, and analyzed by immunoblotting. […] Membranes were imaged with Biorad ChemiDoc™ MP and analyzed with Image lab software 6.0.1 (Biorad, Hercules, Calif.) or Image J [67].

`CCc1ccc(C(=O)C=CSc2nc3ccc(C)cc3[nH]2)cc1` [UC-764864, 1-(4-ethylphenyl)-3-[(6-methyl-1H-benzimidazol-2-yl)sulfanyl]prop-2-en-1-one] was tested, and the inhibition at 1 µM (UBE2N/UBE2V1; 1 μM) was 20%, the inhibition at 2 µM (UBE2N/UBE2V1; 2 μM) was 80% and the “baseline NF-κB, STAT1, IRF7 and IRF1 activity in UBE2N-dependent AML cells” value (MOLM-13 and THP-1 cells) was “inhibition”.
